Reference: the SangsterLogP compilation

How the values were obtained:
[1] = method code SF-AS, from DOI: 10.1021/jm991080o, PMID: 10579844; conditions: pH 7.4
[2] = method code SF-AS, from DOI: 10.1016/s0021-9673(00)82600-x
[3] = method code SF-AS, from DOI: 10.1002/jps.2600630206, PMID: 4204981
[4] = method code SF, from DOI: 10.1016/s0969-8051(99)00063-3, PMID: 10628565; conditions: pH 7.4
[5] = method code SF-AS, from DOI: 10.1016/j.bmc.2011.10.017, PMID: 22094277; conditions: pH 7.4
[6] = method code SF, from DOI: 10.1016/j.nucmedbio.2004.02.004, PMID: 15219281
[7] = not given; remark: listed apart in the source
[8] = not given; remark: listed apart in the source
[9] = method code SF-AS, from DOI: 10.1021/bi00405a042
[10] = method code SF-GLC, from DOI: 10.1007/s002679900238, PMID: 10486045
[11] = method code SF, from DOI: 10.1016/s0960-894x(01)80459-5
[12] = not given; remark: listed apart in the source
[13] = not given; remark: listed apart in the source
[14] = method code SF-RC, from DOI: 10.1016/j.nucmedbio.2008.01.001, PMID: 18355684; conditions: pH 7.4
[15] = method code SF-HPLC, from DOI: 10.1016/s0021-9673(01)81976-2, PMID: 4066822
[16] = not given; remark: listed apart in the source
[17] = not given; remark: listed apart in the source
[18] = not given; remark: listed apart in the source
[19] = method code SF-AS, from DOI: 10.1021/acs.jmedchem.5b01455, PMID: 26523333; conditions: pH 7.4
[20] = method code SF-AS, from DOI: 10.1016/0378-5173(84)90231-x
[21] = not given; remark: listed apart in the source
[22] = not given; remark: listed apart in the source
[23] = method code SF-AS, from DOI: 10.1016/j.ejps.2010.09.003, PMID: 20854904; conditions: pH 10.0
[24] = method code SF-AS, from DOI: 10.1021/jf60167a006
[25] = method code SF, from DOI: 10.1071/sr9810061
[26] = not given; remark: listed apart in the source
[27] = not given; remark: listed apart in the source
[28] = pH 7.4
[29] = not given; remark: listed apart in the source
[30] = not given; remark: listed apart in the source
[31] = method code SF-HPLC, from DOI: 10.1248/cpb.37.2861, PMID: 2611948; conditions: pH 4.0
[32] = method code SF-AS, from Jha, T.; Debnath, A.; Mazumdar, A.; Sengupta, C.; De, A. (1986). Hansch analysis of antineoplastic agents, 5-N-substituted-2-p-substituted benzenesulfonyl-L-glutamines. Ind. J. Chem., Sect. B, …
[33] = method code SF-AS, from KuchaÅ™, M.; Rejholec, V.; Miller, V. (1985). Chromatographically determined lipophilicity and intramolecular interactions of bioactive compounds. Pharmacochemistry Library, 8, 321-331.; conditions: pH 3.4
[34] = method code SF-AS, from DOI: 10.1515/znc-1987-7-832, PMID: 2961152
[35] = method code SF-AS, from DOI: 10.1039/ft9959100995
[36] = not given; remark: listed apart in the source
[37] = method code SF-GLC, from DOI: 10.1007/bf00224496

CCC(O)c1c(O)c(=O)cc(C)n1C (stereo unspecified)
logD [1]: -0.13

COc1cnn(-c2ccccc2)c(=O)c1Br
logP [2]: 1.42

COc1ncnc2c1ncn2[C@@H]1O[C@H](CO)C[C@H]1F
logP: 0.25

O=C(O)C1CCc2ccccc2O1 (stereo unspecified)
logP [3]: 1.9

CC(=O)OCC1C(OC(C)=O)C(OC(C)=O)C(OC(C)=O)CN1Cc1cccc(I)c1 (stereo unspecified)
logD [4]: 3.16

CCOC(=O)[C@@]1(C)[C@H](CO)CC=[N+]1[O-]
logD [5]: -1.3

O=c1[nH]c(=O)n([C@@H]2O[C@H](CO)[C@@H](O)[C@H]2F)cc1/C=C/I
logP [6]: 1.21

Clc1cccc2cccc(Cl)c12
logP [7]: 4.41

CCNc1nc(Cl)nc(N(CC)CC)n1
logP [8]: 3.07

CNC(=O)CCc1c[nH]c2ccccc12
logP [9]: 1.23

CC1(C)C2CCC1(C)C(OCCO)C2 (stereo unspecified)
logP [10]: 3.32

OC[C@@H]1[C@@H](O)[C@H](O)[C@@H](O)CN1C/C=C/I
logD [4]: -0.37

CCc1c(O)c(=O)ccn1CCOC(C)=O
logD [1]: -0.24

CCCCCCCCCCCCCCCCOP(=O)(OCC1CC(O)C(n2cnc3c(N)ncnc32)O1)OCC1OC(n2cc(C)c(=O)[nH]c2=O)CC1N=[N+]=[N-] (stereo unspecified)
logP [11]: 3.26

CCC(O)(C(N)=O)c1ccccc1 (stereo unspecified)
logP [12]: 1.2

O=C(CCCCCO[N+](=O)[O-])Oc1ccccc1C(=O)O
logP [13]: 2.49

CN1CCC=C(c2nsnc2SCCCF)C1
logD [14]: 2.4

COC1=C(OC)C(=O)C(OC)=C(OC)C1=O
logP [15]: 0.41

OC[C@@H]1C[C@@H](F)[C@H](n2cnc3c(Cl)ncnc32)O1
logP: 0.32

COc1cccc(C(=O)O)c1OC
logP [16]: 1.94

CCCC(C)(COC(N)=O)COC(N)=O
logP [17]: 1.12

Nc1ncnc2c1ncn2[C@@H]1O[C@H](CO)C[C@H]1O
logP [11]: -0.65

COCCc1ccc(O)cc1
logP [18]: 1.85

CCC(C)(Oc1ccc(Cl)cc1)C(=O)O (stereo unspecified)
logP [3]: 2.9

FCC(F)Cc1c[nH]c2ccccc12 (stereo unspecified)
logD [19]: 2.54

CCC(O)(CC(N)=O)c1ccccc1 (stereo unspecified)
logP [12]: 1.83

CC(C)(C)[N+]([O-])=Cc1ccccc1
logP [20]: 1.22

Clc1cc2c(Cl)c(Cl)c(Cl)c(Cl)c2cc1Cl
logP [21]: 6.77

CC(=O)c1ccc2cccccc1-2
logP [22]: 2.87

Oc1ccc(CCOCC2CC2)cc1
logP [18]: 3

CC(C)OC(=O)[C@@]1(C)[C@H](CO)CC=[N+]1[O-]
logD [5]: -0.96

Clc1cc2c(Cl)ccc(Cl)c2c(Cl)c1Cl
logP [21]: 6.46

O=c1[nH]c(=O)n(C2CC(O)C(CO)O2)cc1/C=C/I (stereo unspecified)
logP [6]: 1.1

O=C(CCN1CCOCC1)c1ccccc1
logD [23]: 1.24

CCOP(=O)(OCC)Oc1c(Cl)cc(SC)cc1Cl
logP [24]: 3.72

COC1=CC(=O)C(OC)=C(OC)C1=O
logP [15]: 0.22

CCOP(=O)(OCC)SCS(=O)(=O)C(C)(C)C
logP [25]: 2.76

Cc1[nH]cnc1CSCCNc1cc(=O)cc[nH]1
logP [26]: 0.8

CC(C)(C)[N+]([O-])=Cc1ccc(F)cc1
logP [20]: 1.42

CC(C)=CCCC(C)CCO (stereo unspecified)
logP [27]: 3.38

CC(=O)Oc1ccccc1C(=O)OCS(C)=O (stereo unspecified)
logD [28]: 0.11

O=C[C@H](NC(=O)N(CCCl)N=O)[C@@H](O)[C@H](O)[C@H](O)CO
logP [29]: -1.02

CN(C)CCOC(=O)c1ccccc1
logD [23]: 1.76

CC[C@@H](CO)NCCN[C@@H](CC)CO
logP [30]: -0.4

O=c1[nH]c(=O)n(Cc2ccccc2)cc1F
logD [31]: 0.89

O=Cc1ccc2cccccc1-2
logP [22]: 2.64

CN1CCC=C(c2nsnc2SCCC(F)(F)F)C1
logD [14]: 2.9

CCNc1nc(Cl)nc(NC(C)(C)C)n1
logP [8]: 3.06

CCCCNC(=O)CCC(NS(=O)(=O)c1ccc(C)cc1)C(=O)O (stereo unspecified)
logP [32]: 0.02

CC1=CCC(C(C)C)=CC1
logP [10]: 4.5

N#Cc1ccc(/C=C2\CCCc3ccccc3C2=O)cc1
logP [17]: 4.27

CC(O)(C(=O)O)c1ccccc1 (stereo unspecified)
logD [33]: 0.83

CCCOC(=O)c1ccccc1
logP [16]: 3.23

Cc1ncc(CNC(=O)N(CCCl)N=O)c(N)n1
logP [29]: 0.39

CNC(=O)CCc1ccccc1
logP [9]: 1.17

Cc1[nH]cnc1CSCCNC1=NC(=O)CN1
logP [26]: -0.5

CN(C(=O)N(CCCl)N=O)C1CC(C)(C)N(O)C(C)(C)C1
logP [34]: 1.7

CC(=O)OCCOCn1cnc2cnc(N)nc21
logP [35]: -0.61

CN(C)c1cnn(-c2ccccc2)c(=O)c1Cl
logP [2]: 1.55

O=C(O)CCCC(=O)c1ccccc1
logD [33]: 1.49

CC(=O)Nc1ncc2ncn(COCCOC(C)=O)c2n1
logP [35]: -1.05

Clc1cc2ccccc2cc1Cl
logP [7]: 4.71

Cc1cccc(C2CNCCO2)c1 (stereo unspecified)
logP [36]: 1.52

CC(=O)Oc1ccccc1C(=O)OCCN(C)C(C)=O
logD [28]: 1.46

NC(=O)CCC(NS(=O)(=O)c1ccccc1)C(=O)O (stereo unspecified)
logP [32]: 0.58

CC(C)N1CCOC(c2cccc(Cl)c2)C1 (stereo unspecified)
logP [36]: 3.27

CC(F)(F)Cc1c[nH]c2ccccc12
logD [19]: 3.3

Cc1nccn1CC1CCc2c(c3ccccc3n2C)C1=O (stereo unspecified)
logP [30]: 1.92

CCOP(=O)(OCC)SCS(=O)C(C)(C)C (stereo unspecified)
logP [25]: 2.66

CC(C)=CCC/C(C)=C/C=O
logP [27]: 3.76

O=c1[nH]c(=O)n(Cc2ccc(Cl)cc2)cc1F
logD [31]: 1.64

O=C(CCCO[N+](=O)[O-])Oc1ccccc1C(=O)O
logP [13]: 1.95

CC1CCC(NC(=O)N(CCCl)N=O)CC1 (stereo unspecified)
logP [34]: 3.25

C=CC(=C)CCC=C(C)C
logP [37]: 4.5

CCOP(=O)(OCC)Oc1ccccc1
logP [24]: 1.64

C=C(C)C1CC=C(C)CC1 (stereo unspecified)
logP [37]: 4.4
